The text below walks through data of patent US12441727B2, “Tricyclic compounds as inhibitors of KRAS” (Incyte Corporation, priority 2021, dated 2025).

One series deals with KRAS_G12C pERK. In words: Cellular pERK HTRF assay (KRAS_G12C pERK assay). The format is cell-based, human. As to conditions: Homo sapiens, 4 h, KRAS G12C cells, 4 hours incubation with compound; read-out: G12C_pERK. In outline:
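KRAS-mutant (G12C, G12D, G12V) and KRAS WT cancer cell lines, plated overnight in RPMI/10% FBS, were treated with compound (0.1% DMSO) at 37 °C for 4 h (G12C, G12V) or 2 h (G12D). Lysates were probed with anti-phospho-ERK1/2 HTRF antibody pair read at 665/620 nm; IC50 fitted.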

The target in the next series is KRAS G12C (Homo sapiens, UniProt P01116, G12C). Nature of the series: GDP-GTP exchange assay (KRAS_G12C exchange assay). It is filed as biochemical. As to conditions: bodipy-loaded KRAS G12C 2.5 nM, SOS1 150 nM, 2 hours pre-incubation with inhibitor; read-out: G12C_exchange. An outline of the steps: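 Bodipy-GDP-loaded KRAS G12C (2.5 nM final) preincubated 2 hours with compound in 25 mM Hepes pH 7.5, 50 mM NaCl, 10 mM MgCl2, 0.01% Brij-35; exchange started with 500 uM GppNHp and 150 nM SOS1, run 2 hours at ambient temperature. Fluorescence read at 485/520 nm; IC50 by four-parameter logistic fit.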

A short description of series [1]: Human whole blood stability. It is filed as in vitro ADME. As to conditions: percent remaining at 4 hr, 1 μM, 37° C. The protocol: The whole blood stability of the exemplified compounds was determined by LC-MS/MS. The 96-Well Flexi-Tier™ Block (Analytical Sales & Services, Inc, Flanders, NJ) is used for the incubation plate containing 1.0 mL glass vials with 0.5 mL of blood per vial (pooled gender, human whole blood sourced from BIOIVT, Hicksville, NY or similar). Blood is pre-warmed in water bath to 37° C. for 30 minutes. 96-deep well analysis plate is prepared with the addition of 100 μL ultrapure water/well. 50 μL chilled ultrapure water/well is added to 96-deep well sample collection plate and covered with a sealing mat. 1 μL of 0.5 mM compound working solution (DMSO:water) is added to the blood in incubation plate to reach final concentrations of 1 μM, mixed by pipetting thoroughly and 50 μL is transferred 50 into the T=0 wells of the sample collection plate. Blood is allowed to sit in the water for 2 minutes and then 400 μL stop solution/well is added (acetonitrile containing an internal standard). The incubation plate is placed in the Incu-Shaker CO2 Mini incubator (Benchmark Scientific, Sayreville, NJ) at 37° C. with shaking at 150 rpm. At 1, 2 and 4-hr, the blood samples are mixed thoroughly by pipetting and 50 μL is transferred into the corresponding wells of the sample collection plate. Blood is allowed to sit in the water for 2 minutes and then 400 μL of stop solution/well is added. The collection plate is sealed and vortexed at 1700 rpm for 3 minutes (VX-2500 Multi-Tube Vortexer, VWR International, Radnor, PA), and samples are then centrifuged in the collection plate at 3500 rpm for 10 minutes (Allegra X-14R Centrifuge Beckman Coulter, Indianapolis, IN). 100 μL of supernatant/well is transferred from the sample collection plate into the corresponding wells of the analysis plate. The final plate is vortexed at 1700 rpm for 1 minute and analyze samples by LC-MS/MS. The peak area ratio of the 1, 2, and 4 hr samples relative to T=0 is used to determine the percent remaining. The natural log of the percent remaining versus time is used determine a slope to calculate the compounds half-life in blood (t1/2=0.693/slope).

For series [2], the system named is KRAS_G12C pERK in MIA PaCa-2 cells. In words: Whole Blood pERK1/2 HTRF assay (KRAS_G12C WB pERK assay). It is filed as cell-based, human. As to conditions: Homo sapiens, compound in whole blood, 4 hours, read-out: G12C_WB_pERK. An outline of the steps:
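MIA PaCa-2 (KRAS G12C) cells were grown 2 days, then exposed for 4 h at 37 °C to compound spiked into whole blood (0.5% DMSO). After PBS washes and lysis, phospho-ERK1/2 was read by HTRF at 665/620 nm, and the IC50 came from a curve fit.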
A general note: In TR-FRET formats the signal depends on donor and acceptor labels being close together.

Each structure is given as a SMILES string. Where only a bound is given, the exact number is not on record here.

Sequence of KRAS G12C (P01116 1-188 isoform P01116-2 G12C): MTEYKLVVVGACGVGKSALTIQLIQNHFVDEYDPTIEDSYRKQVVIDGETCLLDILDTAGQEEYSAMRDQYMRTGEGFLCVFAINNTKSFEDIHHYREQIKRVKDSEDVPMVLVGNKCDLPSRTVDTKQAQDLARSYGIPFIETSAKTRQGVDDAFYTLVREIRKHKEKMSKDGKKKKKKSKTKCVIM

Regarding `Cc1cccc(-c2c(C)cc3c(nc(N4CC(C)(N(C)C)C4)c4ncn([C@H]5CCN(C(=O)/C=C/CF)[C@H](CC#N)C5)c43)c2F)c1Cl` [Example 12, 2-((2S,4S)-4-(7-(2-chloro-3-methylphenyl)-4-(3-(dimethylamino)-3-methylazetidin-1-yl)-6-fluoro-8-methyl-1H-imidazo[4,5-c]quinolin-1-yl)-1-((E)-4-fluorobut-2-enoyl)piperidin-2-yl)acetonitrile], the IC50 (with KRAS_G12C pERK; at KRAS G12C; in series [2]) was ≤ 50 nM each time. Moreover, the “Human whole blood stability at 4 hr” value in series [1] is reported as “††† (WBS >90%)”.
`C=C(F)C(=O)N1CC[C@H](n2cnc3c(O[C@@H](C)[C@@H]4CCCN4C)nc4c(F)c(-c5cccc(C)c5Cl)c(C)cc4c32)C[C@H]1CC#N` [Example 13, 2-((2S,4S)-4-(7-(2-chloro-3-methylphenyl)-6-fluoro-8-methyl-4-((S)-1-((S)-1-methylpyrrolidin-2-yl)ethoxy)-1H-imidazo[4,5-c]quinolin-1-yl)-1-(2-fluoroacryloyl)piperidin-2-yl)acetonitrile]: the figures for the IC50 (with KRAS_G12C pERK; at KRAS G12C; in series [2]) were ≤ 50 nM, ≤ 50 nM and 100 to 1000 nM, respectively. Further, in series [1], the “Human whole blood stability at 4 hr” value was “†† (WBS >70% but ≤90%)”.
Turning to `COC/C=C/C(=O)N1CC[C@H](n2nnc3c(O[C@@H](C)[C@@H]4CCCN4C)nc4c(F)c(-c5ncc(F)c6ccccc56)c(C)cc4c32)C[C@H]1CC#N` [Example 21, 2-((2S,4S)-4-(6-fluoro-7-(4-fluoroisoquinolin-1-yl)-8-methyl-4-((S)-1-((S)-1-methylpyrrolidin-2-yl)ethoxy)-1H-[1,2,3]triazolo[4,5-c]quinolin-1-yl)-1-((E)-4-methoxybut-2-enoyl)piperidin-2-yl)acetonitrile], the IC50 (with KRAS_G12C pERK; at KRAS G12C; in series [2]) was ≤ 50 nM in each case. In series [1], the “Human whole blood stability at 4 hr” value is “††† (WBS >90%)”.
